Results taken from ChEMBL document CHEMBL3992567, “Discovery of Highly Potent 2-Sulfonyl-Pyrimidinyl Derivatives for Apoptosis Inhibition and Ischemia Treatment” (ACS Med Chem Lett, 2017).
Activity calls are given as the source filed them. The calls are words filed in the database; no cut-off is given here. Residues, ends and D or L forms follow the SMILES beside them.

Experiments:
[1] = Lysine reactivity of the compound at 20 uM after 2 hrs by UPLC analysis
[2] = Cysteine reactivity of the compound at 20 uM after 2 hrs by UPLC analysis
[3] = Glutathione reactivity of the compound at 20 uM after 2 hrs by UPLC analysis
[4] = target: T1, Succinate dehydrogenase [ubiquinone] iron-sulfur subunit, mitochondrial (Homo sapiens) (UniProt P21912); assay: Irreversible inhibition of SDHB in human U2OS cells over-expressing Bim assessed as inhibition of apoptosis preincubated for 1 hr followed by compound washout and doxycyclin addition to induce Bim protein expression measured after 24 hrs by Cell Titer-Glo assay; assay type: cell-based
T1 sequence (whole entry): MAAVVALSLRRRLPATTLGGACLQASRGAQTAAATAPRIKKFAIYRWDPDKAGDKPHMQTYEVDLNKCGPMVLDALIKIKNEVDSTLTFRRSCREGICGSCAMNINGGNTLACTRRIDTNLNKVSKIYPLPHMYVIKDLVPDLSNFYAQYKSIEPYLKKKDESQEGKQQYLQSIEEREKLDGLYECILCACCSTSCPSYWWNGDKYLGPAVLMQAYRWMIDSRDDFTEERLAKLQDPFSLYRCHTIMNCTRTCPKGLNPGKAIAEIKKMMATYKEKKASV

U2OS [5] = assay: Inhibition of mitochondrial-mediated apoptosis in human U2OS cells assessed as reduction in ROS level preincubated for 2 hrs followed by doxycyclin addition measured after 4 hrs by DCFH-DA dye based fluorescence assay; assay type: functional, cell-based
U2OS [6] = assay: Inhibition of mitochondrial-mediated apoptosis in human U2OS cells assessed as reduction in mitochondrial membrane potential loss at 10 uM preincubated for 1 hr followed by doxycyclin addition measured after 4 hrs by TMRM dye based confocal microscopic method; assay type: functional, cell-based
[7] = Glutathione reactivity of the compound in PBS buffer at 100 nM up to 35 mins by LC-MS/Ms analysis
Rattus norvegicus [8] = species on record: Rattus norvegicus; assay: Protection against middle cerebral artery occlusion-induced transient focal cerebral ischemia in Sprague-Dawley rat assessed as reduction in brain infarct volume at 50 to 200 uM pretreated for 1 hr followed by reperfusion measured 24 hrs post MCAO by TTC staining based assay; assay type: functional
U2OS [9] = assay: Inhibition of mitochondrial-mediated apoptosis in human U2OS cells assessed as reduction in mitochondrial membrane potential loss at 3 nM preincubated for 1 hr followed by doxycyclin addition measured after 4 hrs by TMRM dye based confocal microscopic method; assay type: functional, cell-based
U2OS [10] = assay: Inhibition of mitochondrial-mediated apoptosis in human U2OS cells assessed as reduction in mitochondrial membrane potential loss at 1 uM preincubated for 1 hr followed by doxycyclin addition measured after 4 hrs by TMRM dye based confocal microscopic method; assay type: functional, cell-based
U2OS [11] = assay: Inhibition of apoptosis in human U2OS cells over-expressing Bim assessed as mitochondrial cytochrome c release at 20 uM after 1 hr in presence of doxycyclin by confocal microscopic method; assay type: functional, cell-based
Rattus norvegicus [12] = species on record: Rattus norvegicus; assay: Protection against middle cerebral artery occlusion-induced transient focal cerebral ischemia in Sprague-Dawley rat assessed as reduction in brain infarct volume at 10 to 200 uM pretreated for 1 hr followed by reperfusion measured 24 hrs post MCAO by TTC staining based assay; assay type: functional
U2OS [13] = assay: Inhibition of mitochondrial-mediated apoptosis in human U2OS cells assessed as reduction in mitochondrial membrane potential loss at 100 nM preincubated for 1 hr followed by doxycyclin addition measured after 4 hrs by TMRM dye based confocal microscopic method; assay type: functional, cell-based
U2OS [14] = assay: Inhibition of apoptosis in human U2OS cells over-expressing Bim assessed as mitochondrial cytochrome c release at 10 uM after 1 hr in presence of doxycyclin by confocal microscopic method; assay type: functional, cell-based

Cc1cc(-c2cccs2)nc(S(C)(=O)=O)n1
Activity [1]: inactive | Activity [2]: inactive | Activity [3]: inactive

CS(=O)(=O)c1nc(-c2ccc(=O)n(Cc3ccccc3)c2)cc(C(F)(F)F)n1
inhibition [4]: Active | inhibition (U2OS [5]): Active | inhibition (U2OS [6]): Active

COc1ccc(Cn2cc(-c3cc(C(F)(F)F)nc(S(=O)(=O)CCCC(=O)NC45CC6CC(CC(C6)C4)C5)n3)ccc2=O)cc1OC
Activity [1]: inactive | Activity [7]: Active | Activity (Rattus norvegicus [8]): Active | inhibition [4]: Active | Activity [2]: Active | Activity [3]: Active | inhibition (U2OS [9]): Active

CS(=O)(=O)c1nc(-c2cccs2)cc(C(F)(F)F)n1
Activity [1]: inactive | inhibition [4]: Active | Activity [2]: Active | Activity [3]: Active

CS(=O)(=O)c1nc(-c2ccc(=O)n(Cc3cccc(Cl)c3)c2)cc(C(F)(F)F)n1
inhibition [4]: Active | inhibition (U2OS [5]): Active | inhibition (U2OS [10]): Active

CC(C)[C@H](NC(=O)OCc1ccccc1)C(=O)N[C@@H](C)C(=O)N[C@@H](CC(=O)O)C(=O)O (HELM PEPTIDE1{[O=C(OCc1ccccc1)[*:2]].V.A.D}$$$$V2.0)
inhibition (U2OS [11]): inactive | inhibition (U2OS [6]): inactive

CS(=O)(=O)c1nc(-c2ccc(=O)n(Cc3ccc(Cl)cc3)c2)cc(C(F)(F)F)n1
inhibition [4]: Active | inhibition (U2OS [5]): Active | inhibition (U2OS [10]): Active

CCOC(=O)CCS(=O)(=O)c1nc(-c2cccs2)cc(C(F)(F)F)n1
inhibition [4]: Active

COc1ccc(Cn2cc(-c3cc(C(F)(F)F)nc(S(C)(=O)=O)n3)ccc2=O)cc1
inhibition [4]: Active

COc1ccc(Cn2cc(-c3cc(C(F)(F)F)nc(S(C)(=O)=O)n3)ccc2=O)cc1OC
Activity (Rattus norvegicus [12]): Active | Activity [1]: inactive | Activity [7]: Active | inhibition [4]: Active | inhibition (U2OS [13]): Active | Activity [2]: Active | Activity [3]: Active | inhibition (U2OS [5]): Active

COc1cccc(Cn2cc(-c3cc(C(F)(F)F)nc(S(C)(=O)=O)n3)ccc2=O)c1
inhibition [4]: Active | inhibition (U2OS [5]): Active

Cc1ccc(O)c(NC(=O)CCCS(=O)(=O)c2nc(-c3cccs3)cc(C(F)(F)F)n2)c1
inhibition (U2OS [14]): Active

CCCOc1cccc(Cn2cc(-c3cc(C(F)(F)F)nc(S(C)(=O)=O)n3)ccc2=O)c1
inhibition [4]: Active | inhibition (U2OS [5]): Active

CS(=O)(=O)c1nc(-c2ccccc2)cc(C(F)(F)F)n1
inhibition [4]: Active

CS(=O)(=O)c1nc(-c2ccc(=O)n(Cc3ccccc3Cl)c2)cc(C(F)(F)F)n1
inhibition [4]: Active
